Data from the supplement of paper PMC12463676, “Small-molecule dissolution of stress granules by redox modulation benefits ALS models” (Nature Chemical Biology, 2025).

Each target was assayed with NC(=O)CCCCC1CCSS1 [lipoamide] (assay: thermal stability z-score vs DMSO; higher = more thermally stabilized by treatment). Settings: HeLa; lipoamide concentration 100 µM; arsenate co-treatment: 1 mM arsenate 1 h.
Experimental: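 Cellular thermal proteome profiling in HeLa cells. Cells were treated with 100 µM lipoamide for 1 h, with or without 1 mM arsenate for a further 1 h, then heated to ten temperatures (37-66.3 °C), and soluble protein was quantified by TMT mass spectrometry relative to 0.1% DMSO controls. The thermal stability score (sum of log2 fold changes minus the abundance score) was transformed to a z-score; mean of n = 3 experiments.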
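Note: each temperature applied for 3 min, abundance score taken as mean log2 fold change at the two lowest temperatures, z-score obtained by mean subtraction and division by SD.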

Sequence of UniProt Q8NBZ7 (Q8NBZ7 whole entry): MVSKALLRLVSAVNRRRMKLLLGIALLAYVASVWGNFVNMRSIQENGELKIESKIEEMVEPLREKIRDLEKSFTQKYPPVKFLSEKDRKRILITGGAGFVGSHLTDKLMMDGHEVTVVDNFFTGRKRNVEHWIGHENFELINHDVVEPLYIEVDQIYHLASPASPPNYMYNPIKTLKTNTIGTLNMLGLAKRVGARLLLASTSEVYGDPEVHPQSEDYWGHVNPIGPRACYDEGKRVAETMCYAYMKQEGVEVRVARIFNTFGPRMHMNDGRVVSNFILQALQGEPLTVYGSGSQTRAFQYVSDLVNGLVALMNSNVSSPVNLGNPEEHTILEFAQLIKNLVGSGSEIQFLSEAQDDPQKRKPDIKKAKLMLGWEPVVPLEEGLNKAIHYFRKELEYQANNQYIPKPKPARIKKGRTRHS
Sequence of UniProt Q13123 (Q13123 whole entry): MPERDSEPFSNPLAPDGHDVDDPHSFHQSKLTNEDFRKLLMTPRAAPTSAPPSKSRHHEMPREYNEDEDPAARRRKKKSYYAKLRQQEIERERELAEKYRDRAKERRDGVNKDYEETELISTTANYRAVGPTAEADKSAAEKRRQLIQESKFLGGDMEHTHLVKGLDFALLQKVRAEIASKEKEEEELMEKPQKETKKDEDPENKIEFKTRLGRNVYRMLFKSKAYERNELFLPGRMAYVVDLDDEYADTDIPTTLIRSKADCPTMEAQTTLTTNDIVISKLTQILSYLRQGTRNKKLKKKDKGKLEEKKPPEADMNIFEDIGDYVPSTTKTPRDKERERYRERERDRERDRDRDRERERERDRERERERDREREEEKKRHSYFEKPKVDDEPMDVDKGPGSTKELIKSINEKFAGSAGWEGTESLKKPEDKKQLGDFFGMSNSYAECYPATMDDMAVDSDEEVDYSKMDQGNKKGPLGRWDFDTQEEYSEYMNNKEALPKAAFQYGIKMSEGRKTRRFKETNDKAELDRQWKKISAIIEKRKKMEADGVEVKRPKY
Sequence of UniProt Q86UP2 (Q86UP2 whole entry): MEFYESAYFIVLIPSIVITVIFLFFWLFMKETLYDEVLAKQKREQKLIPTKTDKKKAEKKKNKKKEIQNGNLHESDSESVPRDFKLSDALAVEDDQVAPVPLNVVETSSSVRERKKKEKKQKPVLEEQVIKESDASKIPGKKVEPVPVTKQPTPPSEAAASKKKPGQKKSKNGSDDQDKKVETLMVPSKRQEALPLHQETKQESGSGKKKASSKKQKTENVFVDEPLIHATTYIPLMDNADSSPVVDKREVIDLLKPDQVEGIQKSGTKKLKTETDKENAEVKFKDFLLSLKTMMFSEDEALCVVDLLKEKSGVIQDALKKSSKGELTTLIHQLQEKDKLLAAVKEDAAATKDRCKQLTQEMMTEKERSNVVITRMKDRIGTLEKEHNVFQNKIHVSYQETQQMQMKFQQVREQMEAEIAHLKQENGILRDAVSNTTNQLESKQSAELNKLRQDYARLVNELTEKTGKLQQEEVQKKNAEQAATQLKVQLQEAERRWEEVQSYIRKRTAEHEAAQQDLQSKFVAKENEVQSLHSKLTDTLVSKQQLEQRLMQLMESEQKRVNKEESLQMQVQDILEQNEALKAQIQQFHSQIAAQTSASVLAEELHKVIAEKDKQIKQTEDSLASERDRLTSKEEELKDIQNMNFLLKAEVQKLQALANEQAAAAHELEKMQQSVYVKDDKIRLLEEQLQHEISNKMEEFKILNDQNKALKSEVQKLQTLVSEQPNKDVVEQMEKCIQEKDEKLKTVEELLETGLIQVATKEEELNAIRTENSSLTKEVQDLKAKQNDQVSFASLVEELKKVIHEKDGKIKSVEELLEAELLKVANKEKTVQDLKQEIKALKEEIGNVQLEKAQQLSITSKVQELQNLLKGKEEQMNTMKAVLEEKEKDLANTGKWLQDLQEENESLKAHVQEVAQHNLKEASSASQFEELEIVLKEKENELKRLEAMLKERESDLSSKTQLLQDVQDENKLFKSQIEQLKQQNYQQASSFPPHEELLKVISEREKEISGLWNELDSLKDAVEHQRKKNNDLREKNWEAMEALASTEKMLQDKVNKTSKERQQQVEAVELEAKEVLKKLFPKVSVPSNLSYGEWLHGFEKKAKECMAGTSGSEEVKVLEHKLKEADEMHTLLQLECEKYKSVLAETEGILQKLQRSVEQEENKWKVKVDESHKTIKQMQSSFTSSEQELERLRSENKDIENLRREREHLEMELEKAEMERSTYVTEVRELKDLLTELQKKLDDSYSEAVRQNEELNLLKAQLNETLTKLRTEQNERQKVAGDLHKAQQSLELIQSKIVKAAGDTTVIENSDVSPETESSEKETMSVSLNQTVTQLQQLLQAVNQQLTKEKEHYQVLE
Sequence of UniProt Q96DE0 (Q96DE0 whole entry): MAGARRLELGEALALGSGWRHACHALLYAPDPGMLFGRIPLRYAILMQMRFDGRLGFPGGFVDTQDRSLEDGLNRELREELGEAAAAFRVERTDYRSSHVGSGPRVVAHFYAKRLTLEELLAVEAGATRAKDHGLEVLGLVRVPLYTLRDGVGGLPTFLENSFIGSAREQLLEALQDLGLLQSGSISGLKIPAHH
Sequence of UniProt Q5VSL9 (Q5VSL9 whole entry): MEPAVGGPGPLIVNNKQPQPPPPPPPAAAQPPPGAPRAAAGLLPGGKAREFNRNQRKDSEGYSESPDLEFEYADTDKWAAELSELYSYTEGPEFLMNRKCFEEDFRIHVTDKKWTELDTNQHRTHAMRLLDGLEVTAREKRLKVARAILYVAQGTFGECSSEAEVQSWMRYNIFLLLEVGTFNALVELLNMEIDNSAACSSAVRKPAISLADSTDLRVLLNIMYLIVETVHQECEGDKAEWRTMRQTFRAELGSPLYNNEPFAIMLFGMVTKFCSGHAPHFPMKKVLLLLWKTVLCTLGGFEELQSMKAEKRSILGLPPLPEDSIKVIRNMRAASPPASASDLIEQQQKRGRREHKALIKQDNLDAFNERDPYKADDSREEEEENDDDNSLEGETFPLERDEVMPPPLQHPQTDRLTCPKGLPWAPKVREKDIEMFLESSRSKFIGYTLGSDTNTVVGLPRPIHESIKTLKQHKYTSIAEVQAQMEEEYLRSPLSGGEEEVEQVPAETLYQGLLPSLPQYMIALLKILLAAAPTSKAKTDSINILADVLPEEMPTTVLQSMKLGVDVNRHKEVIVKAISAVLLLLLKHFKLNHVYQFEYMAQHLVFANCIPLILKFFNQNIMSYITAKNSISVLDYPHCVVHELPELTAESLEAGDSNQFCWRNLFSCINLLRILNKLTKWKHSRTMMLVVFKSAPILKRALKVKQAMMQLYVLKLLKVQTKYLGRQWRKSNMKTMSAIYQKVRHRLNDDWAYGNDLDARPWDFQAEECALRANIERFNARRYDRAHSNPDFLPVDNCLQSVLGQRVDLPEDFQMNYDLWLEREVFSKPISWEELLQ
Sequence of UniProt Q6ZRP7 (Q6ZRP7 whole entry): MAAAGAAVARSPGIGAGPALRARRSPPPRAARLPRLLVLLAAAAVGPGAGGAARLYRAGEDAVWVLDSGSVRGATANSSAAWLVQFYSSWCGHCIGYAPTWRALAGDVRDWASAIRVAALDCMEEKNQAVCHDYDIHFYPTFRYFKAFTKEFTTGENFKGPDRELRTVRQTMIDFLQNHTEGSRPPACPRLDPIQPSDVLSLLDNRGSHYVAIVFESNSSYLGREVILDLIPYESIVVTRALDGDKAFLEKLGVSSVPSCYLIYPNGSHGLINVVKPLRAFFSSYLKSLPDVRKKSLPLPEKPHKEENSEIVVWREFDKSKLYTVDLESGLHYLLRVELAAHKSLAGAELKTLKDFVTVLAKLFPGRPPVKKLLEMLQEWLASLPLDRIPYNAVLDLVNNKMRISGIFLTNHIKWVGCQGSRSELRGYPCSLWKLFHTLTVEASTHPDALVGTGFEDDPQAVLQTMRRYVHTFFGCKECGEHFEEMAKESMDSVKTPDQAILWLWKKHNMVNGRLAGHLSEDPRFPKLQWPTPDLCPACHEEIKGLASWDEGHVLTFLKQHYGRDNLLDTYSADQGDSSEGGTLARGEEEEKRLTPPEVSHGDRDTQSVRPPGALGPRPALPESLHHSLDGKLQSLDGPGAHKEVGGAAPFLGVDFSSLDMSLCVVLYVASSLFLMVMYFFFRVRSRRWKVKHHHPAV
Sequence of UniProt P54727 (P54727 whole entry): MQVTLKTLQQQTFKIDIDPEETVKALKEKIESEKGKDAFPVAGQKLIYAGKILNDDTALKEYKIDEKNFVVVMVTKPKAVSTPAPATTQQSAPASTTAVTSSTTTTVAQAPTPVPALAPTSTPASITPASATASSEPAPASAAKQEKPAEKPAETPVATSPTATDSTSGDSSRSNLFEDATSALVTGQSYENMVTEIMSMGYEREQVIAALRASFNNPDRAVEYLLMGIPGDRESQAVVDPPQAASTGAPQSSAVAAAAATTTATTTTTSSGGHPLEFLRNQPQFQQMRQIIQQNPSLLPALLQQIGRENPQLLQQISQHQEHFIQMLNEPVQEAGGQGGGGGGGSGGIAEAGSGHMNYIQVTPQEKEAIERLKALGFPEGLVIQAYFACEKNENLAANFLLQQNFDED
Sequence of UniProt P40616 (P40616 whole entry): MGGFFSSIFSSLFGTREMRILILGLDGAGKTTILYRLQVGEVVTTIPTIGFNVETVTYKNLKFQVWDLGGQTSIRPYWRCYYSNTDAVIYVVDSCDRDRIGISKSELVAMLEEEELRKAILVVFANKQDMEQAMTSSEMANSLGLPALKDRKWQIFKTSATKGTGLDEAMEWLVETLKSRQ
Sequence of UniProt P24539 (P24539 whole entry): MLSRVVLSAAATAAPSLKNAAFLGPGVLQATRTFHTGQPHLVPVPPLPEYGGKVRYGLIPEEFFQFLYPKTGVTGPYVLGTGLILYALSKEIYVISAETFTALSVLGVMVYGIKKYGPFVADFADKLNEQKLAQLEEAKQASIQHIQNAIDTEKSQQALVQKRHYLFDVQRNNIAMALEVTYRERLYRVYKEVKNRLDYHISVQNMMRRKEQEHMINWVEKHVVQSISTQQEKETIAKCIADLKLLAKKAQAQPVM

Target | thermal stability z-score
ARL1 (UniProt P40616) | -0.148
PPOX (UniProt P50336) | 0.085
RABEP2 (UniProt Q9H5N1) | 0.129
GMPS (UniProt P49915) | -0.853
UXS1 (UniProt Q8NBZ7) | 0.238
KTN1 (UniProt Q86UP2) | 0.265
SOAT1 (UniProt P35610) | -1.32
MIER1 (UniProt Q8N108) | 1.22
PDCL3 (UniProt Q9H2J4) | -0.0813
DNAJC15 (UniProt Q9Y5T4) | 0.824
CCDC58 (UniProt Q4VC31) | 0.552
QSOX2 (UniProt Q6ZRP7) | 0.352
STRIP1 (UniProt Q5VSL9) | 0.978
EHBP1 (UniProt Q8NDI1) | 0.0509
IFT81 (UniProt Q8WYA0) | -0.223
TARSL2 (UniProt A2RTX5) | -0.396
CDC73 (UniProt Q6P1J9) | 0.521
BPTF (UniProt Q12830) | 0.137
UVRAG (UniProt Q9P2Y5) | -0.0868
NIT2 (UniProt Q9NQR4) | 0.25
NUDT16 (UniProt Q96DE0) | 0.938
SLC12A6 (UniProt Q9UHW9) | -0.454
ATP5F1 (UniProt P24539) | -0.648
YBEY (UniProt P58557) | -0.077

Target | thermal stability z-score
IK (UniProt Q13123) | 1.25
RAD23B (UniProt P54727) | 1.08
MLLT4 (UniProt P55196) | -0.572
AMBRA1 (UniProt Q9C0C7) | 0.0433
SOCS6 (UniProt O14544) | 0.0176
MTERF4 (UniProt Q7Z6M4) | -0.0828
MRPS18A (UniProt Q9NVS2) | -0.573
RRAGC (UniProt Q9HB90) | 0.182
VPS8 (UniProt Q8N3P4) | -0.0735
GALT (UniProt P07902) | -0.362
EEFSEC (UniProt P57772) | -0.771
PCK2 (UniProt Q16822) | -0.107
PANX1 (UniProt Q96RD7) | 0.67
PSMA1 (UniProt P25786) | 0.629
RNASEH2B (UniProt Q5TBB1) | 0.719
VCP (UniProt P55072) | 0.257
PLOD1 (UniProt Q02809) | -4.26
RAF1 (UniProt P04049) | -0.142
LMF2 (UniProt Q9BU23) | -0.972
MTX1 (UniProt Q13505) | -0.275
CHPF2 (UniProt Q9P2E5) | -0.824
TPCN1 (UniProt Q9ULQ1) | 0.0393
MRPL45 (UniProt Q9BRJ2) | -0.181
RPS6KA3 (UniProt P51812) | -0.607

Target | thermal stability z-score
RBM27 (UniProt Q9P2N5) | -0.453
FAM65A (UniProt Q6ZS17) | 0.215
MAP3K6 (UniProt O95382) | 0.0331
LGALS1 (UniProt P09382) | 0.596
SEC22B (UniProt O75396) | -0.614
ARCN1 (UniProt P48444) | 0.128
HBS1L (UniProt Q9Y450) | 0.179
PGAM1 (UniProt P18669) | -0.0445
SLK (UniProt Q9H2G2) | 0.413
SEC11A (UniProt P67812) | -2.78
CYB561A3 (UniProt Q8NBI2) | -0.299
YIPF3 (UniProt Q9GZM5) | -0.157
ACOT13 (UniProt Q9NPJ3) | -0.279
TNFAIP1 (UniProt Q13829) | -0.526
CDK16 (UniProt Q00536) | 0.0459
TAOK3 (UniProt Q9H2K8) | 0.238
CEP350 (UniProt Q5VT06) | -0.154
MAPK9 (UniProt P45984) | 0.00773
SCFD1 (UniProt Q8WVM8) | -0.771
DHX38 (UniProt Q92620) | -0.164
GIGYF2 (UniProt Q6Y7W6) | -0.406
RNF2 (UniProt Q99496) | -0.111
REPS1 (UniProt Q96D71) | -0.864

Same assay, conditions: HeLa; lipoamide concentration 100 µM; arsenate co-treatment: none

Target | thermal stability z-score
ARL1 (UniProt P40616) | -0.943
PPOX (UniProt P50336) | 0.352
RABEP2 (UniProt Q9H5N1) | 0.15
GMPS (UniProt P49915) | -0.447
UXS1 (UniProt Q8NBZ7) | 0.551
KTN1 (UniProt Q86UP2) | 0.505
SOAT1 (UniProt P35610) | -0.546
MIER1 (UniProt Q8N108) | 1.38
PDCL3 (UniProt Q9H2J4) | 0.0164
DNAJC15 (UniProt Q9Y5T4) | 0.507
CCDC58 (UniProt Q4VC31) | 0.284
QSOX2 (UniProt Q6ZRP7) | 1.15
STRIP1 (UniProt Q5VSL9) | 1.5
EHBP1 (UniProt Q8NDI1) | 0.183
IFT81 (UniProt Q8WYA0) | -0.039
TARSL2 (UniProt A2RTX5) | 0.561
CDC73 (UniProt Q6P1J9) | 0.541
BPTF (UniProt Q12830) | 0.144

Target | thermal stability z-score
UVRAG (UniProt Q9P2Y5) | -0.247
NIT2 (UniProt Q9NQR4) | 0.109
NUDT16 (UniProt Q96DE0) | 0.232
SLC12A6 (UniProt Q9UHW9) | -0.27
ATP5F1 (UniProt P24539) | -0.133
YBEY (UniProt P58557) | 0.169
IK (UniProt Q13123) | 0.908
RAD23B (UniProt P54727) | 1.05
MLLT4 (UniProt P55196) | -0.126
AMBRA1 (UniProt Q9C0C7) | 0.0956
SOCS6 (UniProt O14544) | 0.0429
MTERF4 (UniProt Q7Z6M4) | 0.0195
MRPS18A (UniProt Q9NVS2) | -0.402
RRAGC (UniProt Q9HB90) | -0.182
VPS8 (UniProt Q8N3P4) | -0.283
GALT (UniProt P07902) | -0.325
EEFSEC (UniProt P57772) | 0.715
